According to article PMC10518255, “A first-in-class pan-lysyl oxidase inhibitor impairs stromal remodeling and enhances gemcitabine response and survival in pancreatic cancer” (Nature Cancer, 2023):
Where “and” joins values, the source holds several entries; their conditions need not be identical. Identical values can stand only once.

How the values were obtained:
[1] = test system: F4/80; assay: Immunohistochemistry of end-point KPC tumors: macrophage infiltration; assay type: in vivo, mouse; conditions: KPC tumours at endpoint; individual replicate values (Extended Data 6G)
Procedure: All tissues or matrices, including patient TMAs, were fixed in 10% buffered formalin and embedded in paraffin. The 4-μm sections of samples were deparaffinized with xylene and rehydrated in graded ethanol washes. For immunohistochemistry, Bond Dewax Solution (AR9222) was used. Antigen retrieval was performed using Bond RX H2(30) protocol: HIER 30 min ER1 (citrate pH 6) OR ER2 (EDTA pH 9) at 100 °C. Slides were quenched in BOND Polymer Refine Detection (Leica Biosystems DS9800). […] Slides were digitized on an Aperio slide scanner and representative areas per tumor acquired and analyzed by researchers blinded to the conditions of the experiment.
Extended Data Fig. 6 PXS-5505 in combination with gemcitabine in a KPC model. a. Quantification of proliferating cells (Ki67 positive nuclear staining) in KPC tumors at end point, treated as indicated. 5 fields of view (500 μm × 500 μm) per mouse and 10 mice per cohort were scored. […] Quantification of percent coverage of αSMA positive staining in KPC tumors at end point, treated as indicated. 3 fields of view (1000 μm × 1000 μm) per mouse and 10 mice per cohort were scored. […] Quantification of percent coverage of PDGFR-ß positive staining in KPC tumors at end point, treated as indicated. 3 fields of view (1000 μm × 1000 μm) per mouse and 10 mice per cohort were scored. […] 3 fields of view (500 μm × 500 μm) per mouse and 10 mice per cohort were scored. […]

[2] = Microsomal stability; assay type: in vitro ADME; conditions: microsomes; In vitro (human)

Cl.Cl.NC/C=C(\F)CS(=O)(=O)c1cccc2cccnc12.O [PXS-5505, (Z)-3-fluoro-4-(quinolin-8-ylsulfonyl)but-2-en-1-amine dihydrochloride monohydrate]
macrophage infiltration (F4/80 positive staining) [1]: 5 and 7
remaining at 1 h [2]: 97%
